In ChEMBL document CHEMBL1201861, “Genomics of Drug Sensitity in Cancer screening data, Wellcome Trust Sanger Institute”:

Experiments:
RVH-421 = experiment: cells; type: functional, cell-based; settings: Homo sapiens
Description: SANGER: Inhibition of human RVH-421 cell growth in a cell viability assay.

HT1197 = experiment: cells; type: functional, cell-based, HT-1197; settings: Homo sapiens
Description: SANGER: Inhibition of human HT-1197 cell growth in a cell viability assay.

CAL-39 = experiment: cells; type: functional, cell-based; settings: Homo sapiens;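 note: cell viability assay measuring growth inhibition of CAL-39 cells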
Description: SANGER: Inhibition of human CAL-39 cell growth in a cell viability assay.

NCI-H1522 = experiment: cells; type: functional, cell-based, Homo sapiens; settings: Homo sapiens, NCI-H1522;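 note: growth inhibition of NCI-H1522 cells, read out with a cell viability assay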
Description: SANGER: Inhibition of human NCI-H1522 cell growth in a cell viability assay.

NCI-H322M = experiment: cells; type: functional, cell-based, Homo sapiens; settings: Homo sapiens, NCI-H322M;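 note: cell viability assay measuring inhibition of growth of human NCI-H322M cells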
Description: SANGER: Inhibition of human NCI-H322M cell growth in a cell viability assay.

DK-MG = experiment: cells; type: functional, cell-based; settings: Homo sapiens;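 note: growth inhibition of DK-MG cells, read out with a cell viability assay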
Description: SANGER: Inhibition of human DK-MG cell growth in a cell viability assay.

TE-441-T = experiment: cells; type: functional, cell-based, Homo sapiens; settings: Homo sapiens, TE-441-T
Description: SANGER: Inhibition of human TE-441-T cell growth in a cell viability assay.

EC-GI-10 = experiment: cells; type: functional, cell-based, Homo sapiens; settings: Homo sapiens, EC-GI-10
Description: SANGER: Inhibition of human EC-GI-10 cell growth in a cell viability assay.

LP-1 = experiment: cells; type: functional, cell-based, Homo sapiens; settings: Homo sapiens, LP-1;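 note: growth inhibition of human LP-1 cells, with the read-out taken from a cell viability assay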
Description: SANGER: Inhibition of human LP-1 cell growth in a cell viability assay.

CaR-1 = experiment: cells; type: functional, cell-based; settings: Homo sapiens;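 note: growth inhibition of human CaR-1 cancer cells, read out with a cell viability assay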
Description: SANGER: Inhibition of human CaR-1 cell growth in a cell viability assay.

SNU-449 = experiment: cells; type: functional, cell-based; settings: Homo sapiens
Description: SANGER: Inhibition of human SNU-449 cell growth in a cell viability assay.

COR-L23 = experiment: cells; type: functional, cell-based; settings: Homo sapiens;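 note: cell viability assay measuring how strongly compounds suppress growth of COR-L23 cells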
Description: SANGER: Inhibition of human COR-L23 cell growth in a cell viability assay.

SCC-9 = experiment: cells; type: functional, cell-based; settings: Homo sapiens;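 note: Read-out is a cell viability assay, with values giving inhibition of cell growth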
Description: SANGER: Inhibition of human SCC-9 cell growth in a cell viability assay.

C-33-A = experiment: cells; type: functional, cell-based; settings: Homo sapiens;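 note: cell viability assay measuring growth inhibition of C-33-A cells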
Description: SANGER: Inhibition of human C-33-A cell growth in a cell viability assay.

EB2 = experiment: cells; type: functional, cell-based, Homo sapiens; settings: Homo sapiens, EB2;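 note: growth inhibition of EB2 cells, read out with a cell viability assay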
Description: SANGER: Inhibition of human EB2 cell growth in a cell viability assay.

SNU-423 = experiment: cells; type: functional, cell-based; settings: Homo sapiens
Description: SANGER: Inhibition of human SNU-423 cell growth in a cell viability assay.

A-375 = experiment: cells; type: functional, cell-based; settings: Homo sapiens;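 note: growth inhibition of A375 cells, read out with a cell viability assay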
Description: SANGER: Inhibition of human A375 cell growth in a cell viability assay.

HOS = experiment: cells; type: functional, cell-based; settings: Homo sapiens;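 note: growth inhibition of human HOS cells, read out with a cell viability assay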
Description: SANGER: Inhibition of human HOS cell growth in a cell viability assay.

NCI-H2081 = experiment: cells; type: functional, cell-based, Homo sapiens; settings: Homo sapiens, NCI-H2081;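 note: growth inhibition of human NCI-H2081 cells, read out with a cell viability assay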
Description: SANGER: Inhibition of human NCI-H2081 cell growth in a cell viability assay.

CHL-1 = experiment: cells; type: functional, cell-based; settings: Homo sapiens;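 note: cell growth inhibition, read out with a cell viability assay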
Description: SANGER: Inhibition of human CHL-1 cell growth in a cell viability assay.

NCCIT = experiment: SANGER: Inhibition of human NCCIT cell growth in a cell viability assay.; type: functional, cell-based; settings: Homo sapiens, NCCIT
PC-14 = experiment: cells; type: functional, cell-based; settings: Homo sapiens;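 note: cell viability assay measuring inhibition of PC-14 cell growth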
Description: SANGER: Inhibition of human PC-14 cell growth in a cell viability assay.

P12-Ichikawa = experiment: cells; type: functional, cell-based; settings: Homo sapiens
SNU-16 = experiment: cells; type: functional, cell-based, Homo sapiens; settings: Homo sapiens, SNU-16;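 note: growth inhibition of human SNU-16 cells, determined with a cell viability readout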
Description: SANGER: Inhibition of human NCI-SNU-16 cell growth in a cell viability assay.

SCC-4 = experiment: cells; type: functional, cell-based; settings: Homo sapiens;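 note: growth inhibition of human SCC-4 cells, read out as cell viability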
Description: SANGER: Inhibition of human SCC-4 cell growth in a cell viability assay.

A-431 = experiment: cells; type: functional, cell-based; settings: Homo sapiens;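 note: growth inhibition of A-431 cells, determined with a cell viability read-out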
Description: SANGER: Inhibition of human A431 cell growth in a cell viability assay.

IST-SL2 = experiment: cells; type: functional, cell-based, Homo sapiens; settings: Homo sapiens, IST-SL2;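 note: growth inhibition of human IST-SL2 cells, read out by a cell viability assay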
Description: SANGER: Inhibition of human IST-SL2 cell growth in a cell viability assay.

EW-24 = experiment: cells; type: functional, cell-based, Homo sapiens; settings: Homo sapiens, EW-24;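 note: human EW-24 cancer cell line, growth inhibition read out via a cell viability assay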
Description: SANGER: Inhibition of human EW-24 cell growth in a cell viability assay.

CAL-27 = experiment: cells; type: functional, cell-based; settings: Homo sapiens;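 note: Viability-based readout, IC50 reflecting inhibition of CAL-27 cell growth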
Description: SANGER: Inhibition of human CAL-27 cell growth in a cell viability assay.

HEC-1 = experiment: cells; type: functional, cell-based; settings: Homo sapiens;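 note: growth inhibition of the cell line, read out with a cell viability assay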
Description: SANGER: Inhibition of human HEC-1 cell growth in a cell viability assay.

NCI-H727 = experiment: cells; type: functional, cell-based; settings: Homo sapiens;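 note: growth inhibition of human NCI-H727 cells, read out with a cell viability assay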
Description: SANGER: Inhibition of human NCI-H727 cell growth in a cell viability assay.

SW13 = experiment: cells; type: functional, cell-based; settings: Homo sapiens;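 note: IC50 is inhibition of SW13 cell growth, read out with a cell viability assay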
Description: SANGER: Inhibition of human SW13 cell growth in a cell viability assay.

SW948 = experiment: cells; type: functional, cell-based; settings: Homo sapiens;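 note: growth inhibition of SW948 cells, read out with a cell viability assay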
Description: SANGER: Inhibition of human SW948 cell growth in a cell viability assay.

NCI-H64 = experiment: cells; type: functional, cell-based, Homo sapiens; settings: Homo sapiens, NCI-H64;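 note: growth inhibition of NCI-H64 cells, read out with a cell viability assay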
Description: SANGER: Inhibition of human NCI-H64 cell growth in a cell viability assay.

HCC1599 = experiment: cells; type: functional, cell-based, Homo sapiens; settings: Homo sapiens, HCC1599;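 note: growth inhibition of HCC1599 cells, read out in a cell viability assay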
Description: SANGER: Inhibition of human HCC1599 cell growth in a cell viability assay.

L-540 = experiment: cells; type: functional, cell-based, Homo sapiens; settings: Homo sapiens, L-540;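 note: growth inhibition of the human L-540 cell line, read out with a viability assay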
Description: SANGER: Inhibition of human L-540 cell growth in a cell viability assay.

PFSK-1 = experiment: cells; type: functional, cell-based; settings: Homo sapiens;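 note: cell viability assay measuring how strongly compounds suppress growth of human PFSK-1 cells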
Description: SANGER: Inhibition of human PFSK-1 cell growth in a cell viability assay.

8305C = experiment: cells; type: functional, cell-based; settings: Homo sapiens
Description: SANGER: Inhibition of human 8305C cell growth in a cell viability assay.

NCI-H2087 = experiment: cells; type: functional, cell-based; settings: Homo sapiens;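 note: growth inhibition determined with a cell viability readout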
Description: SANGER: Inhibition of human NCI-H2087 cell growth in a cell viability assay.

HuO9 = experiment: cells; type: functional, cell-based; settings: Homo sapiens;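 note: growth inhibition of HuO9 cells, read out with a cell viability assay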
Description: SANGER: Inhibition of human HuO9 cell growth in a cell viability assay.

AU565 = experiment: cells; type: functional, cell-based; settings: Homo sapiens;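 note: cell viability assay measuring growth inhibition of human AU565 cells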
Description: SANGER: Inhibition of human AU565 cell growth in a cell viability assay.

BL-41 = experiment: cells; type: functional, cell-based; settings: Homo sapiens;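 note: growth inhibition of human BL-41 cells, read out with a cell viability assay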
Description: SANGER: Inhibition of human BL-41 cell growth in a cell viability assay.

EB-3 = experiment: cells; type: functional, cell-based, Homo sapiens; settings: Homo sapiens, EB-3;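 note: human EB-3 cells, growth inhibition read out via a cell viability assay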
Description: SANGER: Inhibition of human EB-3 cell growth in a cell viability assay.

BT-20 = experiment: cells; type: functional, cell-based; settings: Homo sapiens;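 note: cell viability assay measuring suppression of growth in human BT-20 cells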
Description: SANGER: Inhibition of human BT-20 cell growth in a cell viability assay.

HCT-15 = experiment: cells; type: functional, cell-based; settings: Homo sapiens;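 note: cell viability readout, IC50 reflecting suppression of HCT-15 cell growth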
Description: SANGER: Inhibition of human HCT-15 cell growth in a cell viability assay.

KYSE-450 = experiment: cells; type: functional, cell-based; settings: Homo sapiens;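 note: cell growth inhibition measured by a viability assay in human KYSE-450 cells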
Description: SANGER: Inhibition of human KYSE-450 cell growth in a cell viability assay.

HCC38 = experiment: cells; type: functional, cell-based; settings: Homo sapiens;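 note: cell viability assay on the human HCC38 cell line, with IC50 marking the concentration that inhibits cell growth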
Description: SANGER: Inhibition of human HCC38 cell growth in a cell viability assay.

SK-MEL-30 = experiment: cells; type: functional, cell-based; settings: Homo sapiens;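 note: growth inhibition of SK-MEL-30 cells, determined with a cell viability assay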
Description: SANGER: Inhibition of human SK-MEL-30 cell growth in a cell viability assay.

KYSE-140 = experiment: cells; type: functional, cell-based; settings: Homo sapiens;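 note: cell viability assay measuring growth inhibition in human KYSE-140 cells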
Description: SANGER: Inhibition of human KYSE-140 cell growth in a cell viability assay.

RERF-LC-MS = experiment: cells; type: functional, cell-based; settings: Homo sapiens;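 note: growth inhibition of human RERF-LC-MS cells, read out by a cell viability assay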
Description: SANGER: Inhibition of human RERF-LC-MS cell growth in a cell viability assay.

KARPAS-422 = experiment: cells; type: functional, cell-based, Homo sapiens; settings: Homo sapiens, KARPAS-422
Description: SANGER: Inhibition of human KARPAS-422 cell growth in a cell viability assay.

GP5d = experiment: cells; type: functional, cell-based; settings: Homo sapiens;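 note: growth inhibition of human GP5d cells, read out with a cell viability assay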
Description: SANGER: Inhibition of human GP5d cell growth in a cell viability assay.

KYSE-70 cell line = experiment: cells; type: functional, cell-based; settings: Homo sapiens;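 note: cell viability assay read-out, with IC50 expressing suppression of KYSE-70 cell growth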
Description: SANGER: Inhibition of human KYSE-70 cell growth in a cell viability assay.

LU-99A = experiment: cells; type: functional, cell-based; settings: Homo sapiens;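 note: growth inhibition of LU-99A cells, read out with a cell viability assay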
Description: SANGER: Inhibition of human LU-99A cell growth in a cell viability assay.

KYSE-520 cell line = experiment: cells; type: functional, cell-based; settings: Homo sapiens;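 note: growth inhibition of human KYSE-520 cells, read out with a viability assay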
Description: SANGER: Inhibition of human KYSE-520 cell growth in a cell viability assay.

SK-MEL-28 = experiment: cells; type: functional, cell-based; settings: Homo sapiens;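 note: growth inhibition of human SK-MEL-28 cells, read out with a cell viability assay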
Description: SANGER: Inhibition of human SK-MEL-28 cell growth in a cell viability assay.

MRK-nu-1 = experiment: cells; type: functional, cell-based, Homo sapiens; settings: Homo sapiens, MRK-nu-1;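 note: cell viability assay measuring growth suppression of human MRK-nu-1 cells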
Description: SANGER: Inhibition of human MRK-nu-1 cell growth in a cell viability assay.

MOLT-13 = experiment: cells; type: functional, cell-based; settings: Homo sapiens;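 note: IC50 for suppression of MOLT-13 cell growth, read out with a cell viability assay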
Description: SANGER: Inhibition of human MOLT-13 cell growth in a cell viability assay.

NB17 = experiment: cells; type: functional, cell-based, Homo sapiens; settings: Homo sapiens, NB17;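 note: growth inhibition of NB17 cells, read out with a cell viability assay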
Description: SANGER: Inhibition of human NB17 cell growth in a cell viability assay.

Cc1ccc(C(=O)Nc2ccc(CN3CCN(C)CC3)c(C(F)(F)F)c2)cc1C#Cc1cnc2cccnn12 [PONATINIB]
IC50 (RVH-421): > 0.512 µM
IC50 (HT1197): > 0.512 µM
IC50 (CAL-39): 0.465 µM
IC50 (NCI-H1522): > 0.512 µM
IC50 (NCI-H322M): > 0.512 µM
IC50 (DK-MG): > 0.512 µM
IC50 (TE-441-T): > 0.512 µM
IC50 (EC-GI-10): > 0.512 µM
IC50 (LP-1): > 0.512 µM
IC50 (CaR-1): > 0.512 µM
IC50 (SNU-449): 0.3 µM
IC50 (COR-L23): > 0.512 µM
IC50 (SCC-9): > 0.512 µM
IC50 (C-33-A): > 0.512 µM
IC50 (EB2): 0.0558 µM
IC50 (SNU-423): > 0.512 µM
IC50 (A-375): > 0.512 µM
IC50 (HOS): 0.504 µM
IC50 (NCI-H2081): > 0.512 µM
IC50 (CHL-1): > 0.512 µM
IC50 (NCCIT): > 0.512 µM
IC50 (PC-14): > 0.512 µM
IC50 (P12-Ichikawa): > 0.512 µM
IC50 (SNU-16): > 0.512 µM
IC50 (SCC-4): > 0.512 µM
IC50 (A-431): > 0.512 µM
IC50 (IST-SL2): > 0.512 µM
IC50 (EW-24): > 0.512 µM
IC50 (CAL-27): > 0.512 µM
IC50 (HEC-1): > 0.512 µM
IC50 (NCI-H727): > 0.512 µM
IC50 (SW13): > 0.512 µM
IC50 (SW948): > 0.512 µM
IC50 (NCI-H64): > 0.512 µM
IC50 (HCC1599): > 0.512 µM
IC50 (L-540): > 0.512 µM
IC50 (PFSK-1): > 0.512 µM
IC50 (8305C): 0.398 µM
IC50 (NCI-H2087): 0.204 µM
IC50 (HuO9): 0.0545 µM
IC50 (AU565): > 0.512 µM
IC50 (BL-41): > 0.512 µM
IC50 (EB-3): > 0.512 µM
IC50 (BT-20): > 0.512 µM
IC50 (HCT-15): > 0.512 µM
IC50 (KYSE-450): 0.273 µM
IC50 (HCC38): > 0.512 µM
IC50 (SK-MEL-30): > 0.512 µM
IC50 (KYSE-140): > 0.512 µM
IC50 (RERF-LC-MS): > 0.512 µM
IC50 (KARPAS-422): > 0.512 µM
IC50 (GP5d): > 0.512 µM
IC50 (KYSE-70 cell line): > 0.512 µM
IC50 (LU-99A): > 0.512 µM
IC50 (KYSE-520 cell line): > 0.512 µM
IC50 (SK-MEL-28): > 0.512 µM
IC50 (MRK-nu-1): > 0.512 µM

O=S(=O)(O)c1ccc2cc(/N=N/c3cc(S(=O)(=O)O)c4cccnc4c3O)ccc2c1
IC50 (RVH-421): > 16 µM
IC50 (HT1197): > 16 µM
IC50 (CAL-39): > 16 µM
IC50 (NCI-H1522): > 16 µM
IC50 (NCI-H322M): > 16 µM
IC50 (DK-MG): > 16 µM
IC50 (TE-441-T): > 16 µM
IC50 (EC-GI-10): > 16 µM
IC50 (LP-1): > 16 µM
IC50 (CaR-1): > 16 µM
IC50 (SNU-449): > 16 µM
IC50 (COR-L23): > 16 µM
IC50 (SCC-9): > 16 µM
IC50 (C-33-A): > 16 µM
IC50 (EB2): > 16 µM
IC50 (SNU-423): > 16 µM
IC50 (A-375): > 16 µM
IC50 (HOS): > 16 µM
IC50 (NCI-H2081): > 16 µM
IC50 (CHL-1): > 16 µM
IC50 (NCCIT): > 16 µM
IC50 (PC-14): > 16 µM
IC50 (P12-Ichikawa): > 16 µM
IC50 (SNU-16): > 16 µM
IC50 (SCC-4): > 16 µM
IC50 (A-431): > 16 µM
IC50 (IST-SL2): > 16 µM
IC50 (EW-24): > 16 µM
IC50 (CAL-27): > 16 µM
IC50 (HEC-1): > 16 µM
IC50 (NCI-H727): > 16 µM
IC50 (SW13): > 16 µM
IC50 (SW948): > 16 µM
IC50 (NCI-H64): > 16 µM
IC50 (HCC1599): > 16 µM
IC50 (L-540): > 16 µM
IC50 (PFSK-1): > 16 µM
IC50 (8305C): > 16 µM
IC50 (NCI-H2087): > 16 µM
IC50 (HuO9): > 16 µM
IC50 (AU565): > 16 µM
IC50 (BL-41): > 16 µM
IC50 (EB-3): > 16 µM
IC50 (BT-20): > 16 µM
IC50 (HCT-15): 15.9 µM
IC50 (KYSE-450): > 16 µM
IC50 (HCC38): > 16 µM
IC50 (SK-MEL-30): > 16 µM
IC50 (KYSE-140): > 16 µM
IC50 (RERF-LC-MS): > 16 µM
IC50 (KARPAS-422): > 16 µM
IC50 (GP5d): > 16 µM
IC50 (KYSE-70 cell line): > 16 µM
IC50 (LU-99A): > 16 µM
IC50 (KYSE-520 cell line): > 16 µM
IC50 (SK-MEL-28): > 16 µM
IC50 (MRK-nu-1): > 16 µM

Cc1cc(N2CCOCC2)cc2[nH]c(-c3c(NC[C@@H](O)c4cccc(Cl)c4)cc[nH]c3=O)nc12
IC50 (NCI-H1522): > 5.12 µM
IC50 (NCI-H322M): > 5.12 µM
IC50 (MOLT-13): > 5.12 µM
IC50 (NB17): > 5.12 µM
IC50 (TE-441-T): > 5.12 µM
IC50 (EC-GI-10): > 5.12 µM
IC50 (LP-1): > 5.12 µM
IC50 (EB2): > 5.12 µM
IC50 (NCI-H2081): > 5.12 µM
IC50 (NCCIT): 3.83 µM
IC50 (SNU-16): 0.873 µM
IC50 (IST-SL2): > 5.12 µM
IC50 (EW-24): > 5.12 µM
IC50 (NCI-H64): > 5.12 µM
IC50 (HCC1599): > 5.12 µM
IC50 (L-540): > 5.12 µM
IC50 (BL-41): > 5.12 µM
IC50 (EB-3): > 5.12 µM
IC50 (KARPAS-422): > 5.12 µM
IC50 (MRK-nu-1): > 5.12 µM
